The supplement of paper PMC10307832

Key:
Experiment in all cases: relative viability (nuclei count vs DMSO), 5 days (fraction); higher = more cells survive
[1] = system: NCI-H441
Outline: (§1)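 A single step with final 0.05% Triton X-100, 1% formaldehyde and 1 ug/ml Hoechst fixed the cells and stained nuclei 5 days after treatment. Lung cancer cell lines in 1536-well plates had been treated by pin tool the day after seeding with one drug alone or a fixed anchor-drug dose plus five library-drug doses (not always all listed) in √10 steps, and nuclei were counted on 4× images. Relative viability is the ratio of nuclei in treated wells to nuclei in vehicle wells, taken as the median of duplicate plates.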

[2] = system: NCI-H2087
Outline: as §1

[3] = system: BEN
Outline: as §1

[4] = system: NCI-H727
Outline: as §1

[5] = system: NCI-H596
Outline: as §1

[6] = system: NCI-H2126
Outline: as §1

[7] = system: NCI-H522
Outline: as §1

[8] = system: NCI-H3122
Outline: as §1

[9] = system: EMC-BAC-2
Outline: as §1

[10] = system: NCI-H647
Outline: as §1

[11] = system: NCI-H2347
Outline: as §1

[12] = system: NCI-H1993
Outline: as §1

[13] = system: HARA
Outline: as §1

[14] = system: HCC-44
Outline: as §1

[15] = system: 201T
Outline: as §1

[16] = system: NCI-H23
Outline: as §1

[17] = system: NCI-H650
Outline: as §1

[18] = system: NCI-H2023
Outline: as §1

[19] = system: NCI-H838
Outline: as §1

[20] = system: LOU-NH91
Outline: as §1

[21] = system: LCLC-103H
Outline: as §1

[22] = system: NCI-H1395
Outline: as §1

COc1cc2nccc(Oc3ccc(NC(=O)Nc4cc(C)on4)c(Cl)c3)c2cc1OC [Tivozanib] + CCNC(=O)c1noc(-c2cc(C(C)C)c(O)cc2O)c1-c1ccc(CN2CCOCC2)cc1 [Luminespib] (partner 0.01 µM) was tested, and the relative viability ([1]; first compound 0.005 µM) was 0.367, the relative viability ([1]; first compound 0.01581 µM) was 0.446 and the relative viability ([1]; first compound 0.05 µM) was 0.308. For the same compound, the relative viability ([1]; first compound 0.1581 µM) was 0.322, the relative viability ([1]; first compound 0.5 µM) was 0.399 and the relative viability ([2]; first compound 0.005 µM) was 0.135. The relative viability ([2]; first compound 0.01581 µM) was 0.209, the relative viability ([2]; first compound 0.05 µM) was 0.189 and the relative viability ([2]; first compound 0.1581 µM) was 0.148. For the same compound, the relative viability ([2]; first compound 0.5 µM) was 0.147, the relative viability ([3]; first compound 0.005 µM) was 0.337 and the relative viability ([3]; first compound 0.01581 µM) was 0.305. The relative viability ([3]; first compound 0.05 µM) was 0.508, the relative viability ([3]; first compound 0.1581 µM) was 0.148 and the relative viability ([3]; first compound 0.5 µM) was 0.299. It also gave a relative viability ([4]; first compound 0.005 µM) of 0.349, a relative viability ([4]; first compound 0.01581 µM) of 0.59 and a relative viability ([4]; first compound 0.05 µM) of 0.468. For the same compound, the relative viability ([4]; first compound 0.1581 µM) was 0.528, the relative viability ([4]; first compound 0.5 µM) was 0.609 and the relative viability ([5]; first compound 0.005 µM) was 0.771. It also gave a relative viability ([5]; first compound 0.01581 µM) of 1.04, a relative viability ([5]; first compound 0.05 µM) of 1.04 and a relative viability ([5]; first compound 0.5 µM) of 0.858. It also gave a relative viability ([6]; first compound 0.005 µM) of 0.823, a relative viability ([6]; first compound 0.01581 µM) of 0.964 and a relative viability ([6]; first compound 0.05 µM) of 0.875. The relative viability ([6]; first compound 0.1581 µM) was 0.697, the relative viability ([6]; first compound 0.5 µM) was 0.855 and the relative viability ([7]; first compound 0.005 µM) was 0.903. The relative viability ([7]; first compound 0.01581 µM) was 1.01, the relative viability ([7]; first compound 0.05 µM) was 1.03 and the relative viability ([7]; first compound 0.1581 µM) was 1.16. It also gave a relative viability ([7]; first compound 0.5 µM) of 1.22, a relative viability ([8]; first compound 0.005 µM) of 0.0849 and a relative viability ([8]; first compound 0.01581 µM) of 0.104. It also gave a relative viability ([8]; first compound 0.05 µM) of 0.0902, a relative viability ([8]; first compound 0.1581 µM) of 0.0689 and a relative viability ([8]; first compound 0.5 µM) of 0.0976. The relative viability ([9]; first compound 0.005 µM) was 1.13, the relative viability ([9]; first compound 0.01581 µM) was 1.18 and the relative viability ([9]; first compound 0.05 µM) was 1.26. It also gave a relative viability ([9]; first compound 0.1581 µM) of 1.13, a relative viability ([9]; first compound 0.5 µM) of 1.16 and a relative viability ([10]; first compound 0.005 µM) of 0.156. The relative viability ([10]; first compound 0.01581 µM) was 0.527, the relative viability ([10]; first compound 0.05 µM) was 0.401 and the relative viability ([10]; first compound 0.1581 µM) was 0.257. It also gave a relative viability ([10]; first compound 0.5 µM) of 0.148, a relative viability ([11]; first compound 0.01581 µM) of 0.488 and a relative viability ([11]; first compound 0.05 µM) of 0.886. The relative viability ([11]; first compound 0.5 µM) was 0.249, the relative viability ([12]; first compound 0.005 µM) was 0.783 and the relative viability ([12]; first compound 0.01581 µM) was 0.741. For the same compound, the relative viability ([12]; first compound 0.05 µM) was 0.955, the relative viability ([12]; first compound 0.1581 µM) was 0.753 and the relative viability ([12]; first compound 0.5 µM) was 0.825. It also gave a relative viability ([13]; first compound 0.005 µM) of 0.686, a relative viability ([13]; first compound 0.01581 µM) of 0.795 and a relative viability ([13]; first compound 0.05 µM) of 0.75. For the same compound, the relative viability ([13]; first compound 0.1581 µM) was 0.964, the relative viability ([13]; first compound 0.5 µM) was 0.689 and the relative viability ([14]; first compound 0.005 µM) was 1.01. The relative viability ([14]; first compound 0.01581 µM) was 1.06, the relative viability ([14]; first compound 0.05 µM) was 0.927 and the relative viability ([14]; first compound 0.1581 µM) was 1.19. It also gave a relative viability ([14]; first compound 0.5 µM) of 1.08, a relative viability ([15]; first compound 0.005 µM) of 1.06 and a relative viability ([15]; first compound 0.01581 µM) of 1.06. It also gave a relative viability ([15]; first compound 0.05 µM) of 1.03, a relative viability ([15]; first compound 0.1581 µM) of 1.06 and a relative viability ([15]; first compound 0.5 µM) of 1.06. The relative viability ([16]; first compound 0.01581 µM) was 0.198, the relative viability ([16]; first compound 0.05 µM) was 0.193 and the relative viability ([16]; first compound 0.1581 µM) was 0.206. The relative viability ([16]; first compound 0.5 µM) was 0.207, the relative viability ([17]; first compound 0.005 µM) was 0.807 and the relative viability ([17]; first compound 0.01581 µM) was 0.784. It also gave a relative viability ([17]; first compound 0.05 µM) of 0.795, a relative viability ([17]; first compound 0.1581 µM) of 0.692 and a relative viability ([17]; first compound 0.5 µM) of 0.708. The relative viability ([18]; first compound 0.005 µM) was 0.664, the relative viability ([18]; first compound 0.01581 µM) was 0.698 and the relative viability ([18]; first compound 0.05 µM) was 0.681. For the same compound, the relative viability ([18]; first compound 0.1581 µM) was 0.748, the relative viability ([18]; first compound 0.5 µM) was 0.763 and the relative viability ([19]; first compound 0.005 µM) was 0.196. The relative viability ([19]; first compound 0.01581 µM) was 0.265, the relative viability ([19]; first compound 0.05 µM) was 0.501 and the relative viability ([19]; first compound 0.5 µM) was 0.237. The relative viability ([20]; first compound 0.005 µM) was 0.334, the relative viability ([20]; first compound 0.01581 µM) was 0.333 and the relative viability ([20]; first compound 0.05 µM) was 0.374. It also gave a relative viability ([20]; first compound 0.1581 µM) of 0.33, a relative viability ([20]; first compound 0.5 µM) of 0.35 and a relative viability ([21]; first compound 0.005 µM) of 0.847. The relative viability ([21]; first compound 0.01581 µM) was 0.85, the relative viability ([21]; first compound 0.05 µM) was 0.91 and the relative viability ([21]; first compound 0.1581 µM) was 0.964. The relative viability ([21]; first compound 0.5 µM) was 0.921, the relative viability ([22]; first compound 0.005 µM) was 0.654 and the relative viability ([22]; first compound 0.01581 µM) was 0.755. It also gave a relative viability ([22]; first compound 0.05 µM) of 0.852, a relative viability ([22]; first compound 0.1581 µM) of 0.706 and a relative viability ([22]; first compound 0.5 µM) of 0.688.
